# Reference: patent US10093673B2, “Tetracyclic pyridone compounds as antivirals” (Novartis AG, priority 2016, dated 2018)
# Like-named read-outs stand apart in the source and are kept apart here.
# Legend:
# HBsAg secretion = assay: HBsAg assay (ELISA of secreted HBsAg, HepG2-Clone42 cells); format: cell-based, HBV
# Method: HepG2-Clone42, a Tet-inducible HBV-expressing cell line with a stably integrated 1.3mer copy of the HBV ayw strain, was generated based on the Tet-inducible HepAD38 cell line with slight modifications. Ladner S K, et al., Antimicrobial Agents and Chemotherapy. 41(8):1715-1720 (1997). HepG2-Clone42 cells were cultured in DMEM/F-12+Glutamax™ (Life Technologies, Carlsbad, Calif., USA), supplemented with 10% fetal bovine serum (Life Technologies), G-418 (Corning, Manassas, Va., USA) at a final concentration of 0.5 mg/mL, and 5 μg/mL Doxycycline (Sigma, St. Louis, Mo., USA) and maintained in 5% CO2 at 37° C.
# HepG2-Clone42 cells were seeded in into black clear-bottom 96-well plates at a concentration of 6.0×10^4 cells/well. 24 hours post-seeding, the cells were treated with 200 μl/well of media containing five-fold serial dilutions of compounds in DMSO. DMSO alone was used as the no drug control. The final DMSO concentration in all wells was 0.5%.
# The HBsAg ELISA kit (Alpha Diagnostic International, San Antonio, Tex., USE, Catalog #4110) was used to determine the level (semi-quantitative) of secreted HBV sAg.
# The HBSAg ELISA assay was performed following the manufacturer's protocol as described.
# Step 1. Pipet 100 μL each of compound or DMSO treated samples into HBsAg ELISA plates. Seal plates and incubate at room temp for 60 minutes.
# Step 2. Aspirate samples and wash three times with Wash Buffer. Dispense 100μ of antibody-HRP conjugate to each well. Incubate at room temp for 30 minutes.
# Step 3. Aspirate samples and wash three times with Wash Buffer. Add 100 μL of TMB Substrate to all wells and incubate 15 minutes at room temp.
# Step 4. Dispense 100 μL of Stop Solution to each well. Measure absorbance of ELISA plate at 450 nm.
# EC50 values were determined as follows: • 1. Determine the percent of HBsAg secretion inhibition. Calculate the percent inhibition on of HBsAg secretion inhibition using the following equation: 100×(XC−MB)/(MD−MB) • where XC is the absorbance signal from compound-treated well; MB is average absorbance signal (background signal) for column 12 (no cells+HBsAg ELISA sample buffer) and MD is average absorbance signal from DMSO-treated wells. Then calculate EC50 values by non-linear regression using a four parameter curve logistic equation. The curve fit model employed is XLFit Dose Response One Site Model 204: y=(A+((B−A)/(1+(10^((C−x)*D))))) where A is the minimum y value, B is the maximum y value, C is the log EC50 value, and D is the slope factor. High Throughput Solubility Measurement • 1. Transfer 20 ul of 10 mM DMSO stock solution into a 96 deep well plate labeled as […] and 5 ul to another plate labeled as compound standard plate. • 2. Place the buffer plate in a Multi-Tainer MT-4 container (FTS Systems). Freeze dry overnight to remove DMSO. • 3. Add 100 ul of Cl-free PBS (pH 6.8) to the dried compound in the buffer plate and 95 ul of DMSO to the standard plate. • 4. The buffer plate is be sonicated in a water bath for 10 min. • 5. The two plates are then placed onto the VWR orbital shaker to equilibrate for 24 hours at room temperature. • 6. The buffer plate is centrifuged at 4000 rpm for 30 min. • 7. Transfer 10 ul aliquots of supernatant from the buffer plate to a sample plate and dilute 5 fold. • 8. Inject both compound standard and sample into the UPLC/UV/CLND/MS to generate multi detector qualitative and quantitive analytical data. • 9. Data was processed with Xcalibur. CLND equimolar response was used for measuring compound concentration of DMSO solution. UV270 nm or MS relative ratio was used for solubility determination.
# [1] = Pharmacokinetics in mice (iv and PO); format: in vivo; settings: for Cmax / Tmax / AUC / clearance / bioavailability / Vd: mouse, in vivo; for bioavailability: read-out: Oral BA (% F); for Vd: read-out: Vss
# [2] = Pharmacokinetics in rat (iv and PO); format: in vivo; settings: for Cmax / Tmax / AUC / clearance / bioavailability / Vd: in vivo; for bioavailability: read-out: Oral BA (% F); for Vd: read-out: Vss
# [3] = Pharmacokinetics in dog (iv and PO); format: in vivo; settings: for Cmax / Tmax / AUC / clearance / bioavailability / Vd: in vivo; for bioavailability: read-out: Oral BA (% F); for Vd: read-out: Vss
# [4] = High throughput solubility measurement in PBS; format: physicochemical; settings: Cl-free PBS, aqueous buffer, thermodynamic from solid; PBS (phosphate-buffered saline), pH 6.8, 24 hours at room temperature
# Source text: The following table provides data for solubility of compounds of the invention in PBS (phosphate-buffered saline), using a standard solubility screening method.
# [5] = Hepatitis B virus, read-out: HBsAg EC50, HepG2-Clone42 cells, HBsAg secretion reduced 50% vs DMSO control
# [6] = read-out: HBsAg EC50, HepG2-Clone42 cells, HBsAg secretion reduced 50% vs DMSO control
compound,measurement,setting,value
COCCCOc1cc2c(cc1OC)-c1c(F)c(=O)c(C(=O)O)cn1[C@@H]1[C@H]2CCC1(C)C (racemic) [Compound 3.2],EC50,HBsAg secretion; [5],740 nM
"COCCCOc1cc2c(cc1OC)-c1cc(=O)c(C(=O)O)cn1[C@H]1[C@H]2CCC1(C)C (racemic) [rac-2, 10-methoxy-11-(3-methoxypropoxy)-3,3-dimethyl-7-oxo-1,2,3,3a,7,12b-hexahydrocyclopenta[c]pyrido[2,1-a]isoquinoline-6-carboxylic acid]",EC50,HBsAg secretion; [5],460 nM
"COCCCOc1cc2c(cc1OC)-c1cc(=O)c(C(=O)O)cn1C1C2CCCC1(C)C (single isomer, unassigned) [Compound 9.1, 11-methoxy-12-(3-methoxypropoxy)-4,4-dimethyl-8-oxo-2,3,4,4a,8,13b-hexahydro-1H-pyrido[1,2-f]phenanthridine-7-carboxylic acid]",EC50,HBsAg secretion; [6],9 nM
"COCCCOc1cc2c(cc1OC)-c1cc(=O)c(C(=O)O)cn1C1C2CCCC1(C)C (single isomer, unassigned) [Compound 9.2, 11-methoxy-12-(3-methoxypropoxy)-4,4-dimethyl-8-oxo-2,3,4,4a,8,13b-hexahydro-1H-pyrido[1,2-f]phenanthridine-7-carboxylic acid]",EC50,HBsAg secretion; [6],303 nM
"COCCCOc1cc2c(cc1Cl)-c1cc(=O)c(C(=O)O)cn1[C@H]1[C@@H]2CCC1(C)C (stereo in doubt) [Compound 5.1, (3aS,12bR)-10-chloro-11-(3-methoxypropoxy)-3,3-dimethyl-7-oxo-1,2,3,3a,7,12b-hexahydrocyclopenta[c]pyrido[2,1-a]isoquinoline-6-carboxylic acid]",EC50,HBsAg secretion; [5],6 nM
"COCCCOc1cc2c(cc1OC)-c1cc(=O)c(C(=O)O)cn1[C@H]1[C@@H]2CCC1(C)C [Compound 1.1, (3aS,12bR)-10-methoxy-11-(3-methoxypropoxy)-3,3-dimethyl-7-oxo-1,2,3,3a,7,12b-hexahydrocyclopenta[c]pyrido[2,1-a]isoquinoline-6-carboxylic acid]",EC50,HBsAg secretion; [5],0.1 nM
same,T1/2term.,[1],1.6 h
same,Cmax,[1]; PO 2.0 mg/kg,570 nM
same,Tmax,[1]; PO 2.0 mg/kg,0.5 h
same,AUC,"[1]; PO 2.0 mg/kg, read-out: AUC PO",1.7 µM·h
same,clearance,[1]; iv 1.0 mg/kg,24.6 mL/min/kg
same,bioavailability,"[1]; iv 1.0 mg/kg, PO 2.0 mg/kg",59%
same,AUC,"[1]; iv 1.0 mg/kg, read-out: AUC iv",1.5 µM·h
same,Vd,[1]; iv 1.0 mg/kg,3.6 L/kg
same,T1/2term.,[2],2.4 h
same,Cmax,[2]; PO 2.0 mg/kg,1720 nM
same,Tmax,[2]; PO 2.0 mg/kg,1.33 h
same,AUC,"[2]; PO 2.0 mg/kg, read-out: AUC PO",4.5 µM·h
same,clearance,[2]; iv 1.0 mg/kg,15.3 mL/min/kg
same,bioavailability,"[2]; iv 1.0 mg/kg, PO 2.0 mg/kg",97%
same,AUC,"[2]; iv 1.0 mg/kg, read-out: AUC iv",2.5 µM·h
same,Vd,[2]; iv 1.0 mg/kg,1.3 L/kg
same,T1/2term.,[3],5.9 h
same,Cmax,[3]; PO 1.0 mg/kg,1900 nM
same,Tmax,[3]; PO 1.0 mg/kg,0.22 h
same,AUC,"[3]; PO 1.0 mg/kg, read-out: AUC PO",5.7 µM·h
same,clearance,[3]; iv 0.5 mg/kg,6.4 mL/min/kg
same,bioavailability,"[3]; iv 0.5 mg/kg, PO 1.0 mg/kg",93%
same,AUC,"[3]; iv 0.5 mg/kg, read-out: AUC iv",3.1 µM·h
same,Vd,[3]; iv 0.5 mg/kg,1.7 L/kg
same,solubility at 24 h,[4],2400 µM
"COCCCOc1cc2c(cc1OC)-c1cc(=O)c(C(=O)O)cn1[C@@H]1[C@H]2CCC1(C)C [Compound 1.2, (3aR,12bS)-10-methoxy-11-(3-methoxypropoxy)-3,3-dimethyl-7-oxo-1,2,3,3a,7,12b-hexahydrocyclopenta[c]pyrido[2,1-a]isoquinoline-6-carboxylic acid]",EC50,HBsAg secretion; [5],13 nM
"COCCCOc1cc2c(cc1OC)-c1c(F)c(=O)c(C(=O)O)cn1[C@H]1[C@@H]2CCC1(C)C [Compound 3.1, (3aS,12bR)-8-fluoro-10-methoxy-11-(3-methoxypropoxy)-3,3-dimethyl-7-oxo-1,2,3,3a,7,12b-hexahydrocyclopenta[c]pyrido[2,1-a]isoquinoline-6-carboxylic acid]",EC50,HBsAg secretion; [5],0.3 nM
same,T1/2term.,[1],3.8 h
same,Cmax,[1]; PO 2.0 mg/kg,3000 nM
same,Tmax,[1]; PO 2.0 mg/kg,0.5 h
same,AUC,"[1]; PO 2.0 mg/kg, read-out: AUC PO",9.5 µM·h
same,clearance,[1]; iv 1.0 mg/kg,6.9 mL/min/kg
same,bioavailability,"[1]; iv 1.0 mg/kg, PO 2.0 mg/kg",87%
same,AUC,"[1]; iv 1.0 mg/kg, read-out: AUC iv",5.5 µM·h
same,Vd,[1]; iv 1.0 mg/kg,1 L/kg
same,T1/2term.,[2],9.2 h
same,Cmax,[2]; PO 2.0 mg/kg,6500 nM
same,Tmax,[2]; PO 2.0 mg/kg,0.5 h
same,AUC,"[2]; PO 2.0 mg/kg, read-out: AUC PO",19.6 µM·h
same,clearance,[2]; iv 1.0 mg/kg,2.1 mL/min/kg
same,bioavailability,"[2]; iv 1.0 mg/kg, PO 2.0 mg/kg",57%
same,AUC,"[2]; iv 1.0 mg/kg, read-out: AUC iv",16.6 µM·h
same,Vd,[2]; iv 1.0 mg/kg,0.6 L/kg
same,T1/2term.,[3],7.2 h
same,Cmax,[3]; PO 1.0 mg/kg,6200 nM
same,Tmax,[3]; PO 1.0 mg/kg,1.5 h
same,AUC,"[3]; PO 1.0 mg/kg, read-out: AUC PO",26.7 µM·h
same,clearance,[3]; iv 0.5 mg/kg,1.3 mL/min/kg
same,bioavailability,"[3]; iv 0.5 mg/kg, PO 1.0 mg/kg",96%
same,AUC,"[3]; iv 0.5 mg/kg, read-out: AUC iv",13.3 µM·h
same,Vd,[3]; iv 0.5 mg/kg,0.6 L/kg
same,solubility at 24 h,[4],1600 µM
"COCCCOc1cc2c(cc1Cl)-c1cc(=O)c(C(=O)O)cn1[C@@H]1[C@H]2CCC1(C)C [Compound 5.2, (3aR,12bS)-10-chloro-11-(3-methoxypropoxy)-3,3-dimethyl-7-oxo-1,2,3,3a,7,12b-hexahydrocyclopenta[c]pyrido[2,1-a]isoquinoline-6-carboxylic acid]",EC50,HBsAg secretion; [5],0.1 nM
"COCCCOc1cc2c(cc1OC)-c1cc(=O)c(C(=O)O)cn1C1CCCC21 (stereo not shown) [Compound 6.1, 10-methoxy-11-(3-methoxypropoxy)-7-oxo-1,2,3,3a,7,12b-hexahydrocyclopenta[c]pyrido[2,1-a]isoquinoline-6-carboxylic acid]",EC50,HBsAg secretion; [5],9 nM
"COCCCOc1cc2c(cc1OC)-c1cc(=O)c(C(=O)O)cn1C1CCCC21 (stereo not shown) [Compound 6.2, 10-methoxy-11-(3-methoxypropoxy)-7-oxo-1,2,3,3a,7,12b-hexahydrocyclopenta[c]pyrido[2,1-a]isoquinoline-6-carboxylic acid]",EC50,HBsAg secretion; [6],5 nM
"COCCCOc1cc2c(cc1OC)-c1c(F)c(=O)c(C(=O)O)cn1[C@H]1[C@@H]2OCC1(C)C [Compound 7.1, (3aR,12bR)-8-fluoro-10-methoxy-11-(3-methoxypropoxy)-3,3-dimethyl-7-oxo-3,3a,7,12b-tetrahydro-2H-furo[3,2-c]pyrido[2,1-a]isoquinoline-6-carboxylic acid]",EC50,HBsAg secretion; [5],0.8 nM
COCCCOc1cc2c(cc1OC)-c1c(F)c(=O)c(C(=O)O)cn1C1[C@H]2OCC1(C)C (stereo partly shown) [Compound 7.2],EC50,HBsAg secretion; [5],90 nM
"COCCCOc1cc2c(cc1OC)-c1cc(=O)c(C(=O)O)cn1[C@H]1[C@@H]2COC1(C)C [Compound 8.1, (3aS,12bR)-10-methoxy-11-(3-methoxypropoxy)-3,3-dimethyl-7-oxo-3,3a,7,12b-tetrahydro-1H-furo[3,4-c]pyrido[2,1-a]isoquinoline-6-carboxylic acid]",EC50,HBsAg secretion; [5],1 nM
